In paper PMC11747885, “Potent inhibitors of the human RNA ligase Rlig1 highlights its role in RNA integrity maintenance under oxidative cellular stress” (Chemical Science, 2025):
Several values for one entry are separate records, joined by “and”; a condition that tells them apart may be missing. Equal values may be shown once. Read-outs that look alike come from different tables or passages of the source.

What was measured:
Hsp90-TPR2A = biological target: Hsp90-TPR2A; parameters: method as in MedChemExpress; settings: interaction of Hsp90-TPR2A; ref MedChemExpress; cited from earlier work
Rlig1-AMP = biological target: T1, Rlig1-AMP (Homo sapiens, UniProt Q8N999); experiment: FRET-based high-throughput screening of inhibitors for Rlig1-AMP; format: biochemical; settings: for 1-D Distance: difference of raw data w/o and w enzyme; for Raw data [w Enyzm]: with enzyme; for Raw data [w/o Enzym]: without enzyme
T1 construct: made in house; host or cells: E. coli BL21 (DE3), pET15b-Rlig1

[1] = in DMSO; ref MedChemExpress; cited from earlier work
FAAH [2] = tested on: FAAH; parameters: method as in MedChemExpress; settings: human FAAH; ref MedChemExpress; cited from earlier work
FAAH [3] = tested on: FAAH; parameters: method as in MedChemExpress; settings: mouse FAAH; ref MedChemExpress; cited from earlier work
FAAH [4] = tested on: FAAH; parameters: method as in MedChemExpress; settings: rat FAAH; ref MedChemExpress; cited from earlier work
G9a = tested on: G9a; parameters: method as in MedChemExpress [1]; settings: ref MedChemExpress [1]; cited from earlier work
[5] = DMSO; ultrasonic/warming; ref MedChemExpress; cited from earlier work
NO production = tested on: NO production; parameters: method as in MedChemExpress; settings: ref MedChemExpress; cited from earlier work
EGFR = tested on: EGFR; parameters: method as in MedChemExpress; settings: ref MedChemExpress; cited from earlier work
ERβ = tested on: ERβ; parameters: method as in MedChemExpress; settings: ref MedChemExpress; read-out: IC50, binding to ERβ; cited from earlier work
factor IXaβ (FIXa) = biological target: factor IXaβ (FIXa); parameters: method as in MedChemExpress [1][2][3]; settings: ref MedChemExpress [1][2][3]; cited from earlier work
Ebola virus = settings: cited from earlier work
HCV = tested on: HCV; parameters: method as in MedChemExpress; settings: ref MedChemExpress; cited from earlier work
Rift Valley virus = settings: cited from earlier work
HIV-1 = settings: ref MedChemExpress; cited from earlier work
Dengue Fever virus = tested on: Dengue Fever virus; parameters: method as in MedChemExpress; settings: ref MedChemExpress; cited from earlier work
[6] = biological target: phosphodiesterase 4 (PDE4); parameters: method as in MedChemExpress; settings: ref MedChemExpress; cited from earlier work
[7] = biological target: phosphodiesterase 3 (PDE3); parameters: method as in MedChemExpress; settings: ref MedChemExpress; cited from earlier work
[8] = biological target: phosphodiesterase 5 (PDE5); parameters: method as in MedChemExpress; settings: ref MedChemExpress; cited from earlier work
[9] = biological target: Acyl-coenzyme A: cholesterol acyltransferase (ACAT); parameters: method as in MedChemExpress [1]; settings: rat liver microsomal ACAT; ref MedChemExpress [1]; cited from earlier work
Cdc25B = tested on: Cdc25B; parameters: method as in MedChemExpress [1]; settings: ref MedChemExpress [1]; cited from earlier work
Cdc25C = tested on: Cdc25C; parameters: method as in MedChemExpress [1]; settings: ref MedChemExpress [1]; cited from earlier work
Cdc25A = tested on: Cdc25A; parameters: method as in MedChemExpress [1]; settings: ref MedChemExpress [1]; cited from earlier work
[10] = parameters: method as in MedChemExpress [1]; settings: ref MedChemExpress [1]; read-out: IC50 DPPH radical scavenging; cited from earlier work
[11] = parameters: method as in MedChemExpress [1]; settings: ref MedChemExpress [1]; read-out: IC50 superoxide anion scavenging; cited from earlier work
TLR4 signaling = tested on: TLR4 signaling; parameters: method as in MedChemExpress [1][2][3]; settings: ref MedChemExpress [1][2][3]; cited from earlier work
H+/K+-ATPases = tested on: H+/K+-ATPases; parameters: method as in MedChemExpress [1]; settings: porcine, canine, and human, in vitro; ref MedChemExpress [1]; cited from earlier work
proton transport = tested on: proton transport; parameters: method as in MedChemExpress; settings: ref MedChemExpress; read-out: EC50, inhibition of proton transport; cited from earlier work
TrKA = tested on: TrKA; parameters: method as in MedChemExpress; settings: ref MedChemExpress; read-out: IC50, TrKA phosphorylation; cited from earlier work
ErbB2 = tested on: ErbB2; parameters: method as in MedChemExpress; settings: ref MedChemExpress, cited from earlier work
chymotrypsin = biological target: chymotrypsin; parameters: method as in MedChemExpress; settings: ref MedChemExpress; cited from earlier work
[12] = biological target: Insulin-like Growth Factor 1 Receptor (IGF1R); parameters: method as in MedChemExpress; settings: ref MedChemExpress; cited from earlier work
NTPDase 1 (CD39) = biological target: NTPDase 1 (CD39); parameters: method as in MedChemExpress; settings: ref MedChemExpress; cited from earlier work
NTPDase 2 = biological target: NTPDase 2; parameters: method as in MedChemExpress; settings: ref MedChemExpress; cited from earlier work
NTPDase 3 = biological target: NTPDase 3; parameters: method as in MedChemExpress; settings: ref MedChemExpress; cited from earlier work
[13] = HTS hits, normalized value (npi)
[14] = sheet HTS hits, MedChemExpress library
[15] = HTS hits, normalised value of 1-D Distance

T1 sequence (Q8N999 whole entry): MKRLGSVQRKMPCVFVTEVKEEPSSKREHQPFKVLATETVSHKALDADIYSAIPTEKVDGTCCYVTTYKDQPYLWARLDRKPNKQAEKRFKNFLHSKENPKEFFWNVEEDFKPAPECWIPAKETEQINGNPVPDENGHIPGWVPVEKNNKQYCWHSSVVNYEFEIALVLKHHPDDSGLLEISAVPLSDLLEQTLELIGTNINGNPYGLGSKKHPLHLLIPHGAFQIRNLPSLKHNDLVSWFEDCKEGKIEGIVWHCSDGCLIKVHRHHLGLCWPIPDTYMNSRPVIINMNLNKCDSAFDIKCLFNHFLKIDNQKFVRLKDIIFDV

Cn1nc(-c2ccccc2)nc2c(=O)n(C)c(=O)nc1-2 [3-Phenyltoxoflavin]
Kd (Hsp90-TPR2A): 585 nM
1-D Distance (Rlig1-AMP; HTS hits): 2083
1-D Distance.npi (Rlig1-AMP; [13]): 71.558
Raw data [w Enyzm] (Rlig1-AMP; HTS hits): 15668
Raw data [w/o Enzym] (Rlig1-AMP; HTS hits): 17751

COc1ccc(-c2coc3cc(O)cc(O)c3c2=O)cc1 [Biochanin A]
solubility, DMSO [1]: DMSO : ≥ 50 mg/mL (175.90 mM)
IC50 (FAAH [2]): 2400 nM
IC50 (FAAH [3]): 1800 nM
IC50 (FAAH [4]): 1400 nM
1-D Distance.npi (Rlig1-AMP; [14]): 79.7493
1-D Distance (Rlig1-AMP; sheet HTS hits): 1536
Raw data [w Enyzm] (Rlig1-AMP; sheet HTS hits): 8945
Raw data [w/o Enzym] (Rlig1-AMP; sheet HTS hits): 10481

COc1cc2c(NCC3CCN(C)CC3)cc(-c3ccc(C)o3)nc2cc1OCCCN1CCCC1.Cl.Cl.Cl [CM-579 trihydrochloride]
1-D Distance.npi (Rlig1-AMP; [14]): 80.8725
1-D Distance (Rlig1-AMP; sheet HTS hits): 1286
Raw data [w Enyzm] (Rlig1-AMP; sheet HTS hits): 6218
Raw data [w/o Enzym] (Rlig1-AMP; sheet HTS hits): 7504

CC(/C=C/C=C(\C)C(=O)O[C@@H]1O[C@H](CO)[C@@H](O)[C@H](O)[C@H]1O)=C\C=C\C=C(C)\C=C\C=C(/C)C(=O)O[C@@H]1O[C@H](CO[C@@H]2O[C@H](CO)[C@@H](O)[C@H](O)[C@H]2O)[C@@H](O)[C@H](O)[C@H]1O [Crocin II]
solubility, DMSO [5]: 25 mg/mL and 30.68 mM
IC50 (NO production): 31100 nM
1-D Distance (Rlig1-AMP; HTS hits): 1772
1-D Distance.npi (Rlig1-AMP; [15]): 72.9439
Raw data [w Enyzm] (Rlig1-AMP; HTS hits): 3357
Raw data [w/o Enzym] (Rlig1-AMP; HTS hits): 5129

OC[C@H]1O[C@@H](Oc2cc3c(O)cc(O)cc3[o+]c2-c2cc(O)c(O)c(O)c2)[C@H](O)[C@@H](O)[C@@H]1O.[Cl-] [Delphinidin 3-glucoside (chloride)]
IC50 (EGFR): 2370 nM
1-D Distance (Rlig1-AMP; HTS hits): 1749
1-D Distance.npi (Rlig1-AMP; [15]): 73.356
Raw data [w Enyzm] (Rlig1-AMP; HTS hits): 3316
Raw data [w/o Enzym] (Rlig1-AMP; HTS hits): 5065
IC50 (ERβ): 9700 nM

CN1CCc2nc(C(=O)N[C@@H]3C[C@@H](C(=O)N(C)C)CC[C@@H]3NC(=O)C(=O)Nc3ccc(Cl)cn3)sc2C1.Cc1ccc(S(=O)(=O)O)cc1.O [Edoxaban (tosylate monohydrate)]
Ki (factor IXaβ (FIXa)): 41700 nM
1-D Distance.npi (Rlig1-AMP; [14]): 77.5766
1-D Distance (Rlig1-AMP; sheet HTS hits): 1653
Raw data [w Enyzm] (Rlig1-AMP; sheet HTS hits): 9167

Cc1cc(NCCCN(C)C)c2ccc3c(ccc4c(NCCCN(C)C)cc(C)nc43)c2n1.Cl.Cl.Cl.Cl [FGI-106 (tetrahydrochloride)]
EC50 (Ebola virus): 100 nM
EC50 (HCV): 200 nM
EC50 (Rift Valley virus): 800 nM
EC50 (HIV-1): 150 nM
1-D Distance (Rlig1-AMP; HTS hits): 429
1-D Distance.npi (Rlig1-AMP; [13]): 96.4905
Raw data [w Enyzm] (Rlig1-AMP; HTS hits): 7836
Raw data [w/o Enzym] (Rlig1-AMP; HTS hits): 8265
EC50 (Dengue Fever virus): 400 to 900 nM

Cl.O=C1NCC2(CCN(CCc3ccccc3)CC2)O1 [Fenspiride (hydrochloride)]
-log IC50, PDE4 [6]: 4.16
-log IC50, PDE3 [7]: 3.44
-log IC50, PDE5 [8]: ~3.8
1-D Distance (Rlig1-AMP; HTS hits): 1963
1-D Distance.npi (Rlig1-AMP; [15]): 70.4519
Raw data [w Enyzm] (Rlig1-AMP; HTS hits): 8551
Raw data [w/o Enzym] (Rlig1-AMP; HTS hits): 10514

CC(C)=CCc1cc([C@@H]2CC(=O)c3ccc(O)c(CC=C(C)C)c3O2)ccc1O [Glabrol]
solubility, DMSO [1]: DMSO : 100 mg/mL (254.78 mM; Need ultrasonic)
IC50 [9]: 24600 nM
1-D Distance (Rlig1-AMP; sheet HTS hits): 1660
Raw data [w Enyzm] (Rlig1-AMP; sheet HTS hits): 8836
Raw data [w/o Enzym] (Rlig1-AMP; sheet HTS hits): 10496

Cc1ccc(Cn2cc(CNC3=C(Cl)C(=O)c4cccnc4C3=O)nn2)cc1 [M2N12]
solubility, DMSO [1]: DMSO : 11.11 mg/mL (28.21 mM; ultrasonic and warming and heat to 67°C)
IC50 (Cdc25B): 1390 nM
IC50 (Cdc25C): 90 nM
IC50 (Cdc25A): 530 nM
1-D Distance.npi (Rlig1-AMP; [14]): 96.6155
1-D Distance (Rlig1-AMP; sheet HTS hits): 465
Raw data [w Enyzm] (Rlig1-AMP; sheet HTS hits): 6859
Raw data [w/o Enzym] (Rlig1-AMP; sheet HTS hits): 7324

O=C1O[C@@H]2[C@@H](O)[C@H](O)[C@@H](CO)O[C@H]2c2c1cc(O)c(O)c2O [Norbergenin]
solubility, DMSO [1]: DMSO : 125 mg/mL (397.79 mM; Need ultrasonic)
IC50 [10]: 13000 nM
1-D Distance (Rlig1-AMP; sheet HTS hits): 1829
Raw data [w Enyzm] (Rlig1-AMP; sheet HTS hits): 9099
Raw data [w/o Enzym] (Rlig1-AMP; sheet HTS hits): 10928
IC50 [11]: 32000 nM

C/C(=N\N=C(N)N)c1cc(NC(=O)CCCCCCCCC(=O)Nc2cc(/C(C)=N/N=C(N)N)cc(/C(C)=N/N=C(N)N)c2)cc(/C(C)=N/N=C(N)N)c1.Cl.Cl.Cl.Cl [Semapimod (tetrahydrochloride)]
IC50 (TLR4 signaling): ~300 nM
1-D Distance.npi (Rlig1-AMP; [14]): 101.371
1-D Distance (Rlig1-AMP; sheet HTS hits): 217
Raw data [w Enyzm] (Rlig1-AMP; sheet HTS hits): 4067
Raw data [w/o Enzym] (Rlig1-AMP; sheet HTS hits): 3850

Cc1nc2cc(C(=O)N(C)C)cc(O[C@H]3CCOc4cc(F)cc(F)c43)c2[nH]1 [Tegoprazan]
solubility, DMSO [1]: DMSO : 100 mg/mL (258.14 mM; Need ultrasonic)
1-D Distance (Rlig1-AMP; sheet HTS hits): 1843
Raw data [w Enyzm] (Rlig1-AMP; sheet HTS hits): 8992
Raw data [w/o Enzym] (Rlig1-AMP; sheet HTS hits): 10835
IC50 (H+/K+-ATPases): 290 to 520 nM

CCCCCCCCCCCCCCCC[N+](C)(C)CCN(Cc1ccc(OC)cc1)c1ncccn1.[Br-] [Thonzonium (bromide)]
EC50 (proton transport): 69000 nM
1-D Distance (Rlig1-AMP; HTS hits): 365
1-D Distance.npi (Rlig1-AMP; [15]): 101.053
Raw data [w Enyzm] (Rlig1-AMP; HTS hits): 4968
Raw data [w/o Enzym] (Rlig1-AMP; HTS hits): 4603

CC(C)(C)c1cc(/C=C(\C#N)C(N)=S)cc(C(C)(C)C)c1O [Tyrphostin AG 879]
IC50 (TrKA): 10000 nM
IC50 (ErbB2; ErbB2): 1000 nM
selectivity to ErbB2 than EGFR (ErbB2; ErbB2 vs EGFR): ≥ 500 fold
1-D Distance (Rlig1-AMP; HTS hits): 1883
Raw data [w Enyzm] (Rlig1-AMP; HTS hits): 2204
Raw data [w/o Enzym] (Rlig1-AMP; HTS hits): 4087

Aprotinin
Ki (chymotrypsin): 9 nM
1-D Distance (Rlig1-AMP; HTS hits): 1367
1-D Distance.npi (Rlig1-AMP; [15]): 82.3934
Raw data [w Enyzm] (Rlig1-AMP; HTS hits): 37995
Raw data [w/o Enzym] (Rlig1-AMP; HTS hits): 39362

Indirubin Derivative E804
1-D Distance.npi (Rlig1-AMP; [14]): 87.7994
1-D Distance (Rlig1-AMP; sheet HTS hits): 1070
Raw data [w Enyzm] (Rlig1-AMP; sheet HTS hits): 1875
Raw data [w/o Enzym] (Rlig1-AMP; sheet HTS hits): 2945
IC50 [12]: 650 nM

Sodium metatungstate
Ki (NTPDase 1 (CD39)): 2580 nM
Ki (NTPDase 2): 28800 nM
1-D Distance (Rlig1-AMP; HTS hits): 673
1-D Distance.npi (Rlig1-AMP; [13]): 95.6511
Raw data [w Enyzm] (Rlig1-AMP; HTS hits): 16164
Raw data [w/o Enzym] (Rlig1-AMP; HTS hits): 15491
Ki (NTPDase 3): 3260 nM
